Source: patent publication US20110281802A1, “COMPOSITION FOR TREATMENT AND PREVENTION OF HAIR LOSS AND PREMATURE GRAYING OF HAIR” (Immudiagnostik AG, priority 2007, published 2011)

Columns and labels:
[1] = test system: human anagen VI hair follicles; experiment: Hair shaft elongation of organ-cultured hair follicles, assay #3 (culture HF 446); assay type: cell-based
Procedure: Human anagen VI hair follicles were isolated from scalp skin obtained from three different individuals undergoing routine face-lift surgery. All experiments were performed according to Helsinki guidelines.
Hair follicles were isolated as described (Philpott MP et al, Human hair growth in vitro; J Cell Science 1990, 97(Pt 3):463-71). Isolated HFs were maintained in supplemented, serum-free Williams E medium (Biochrom, Cambridge, UK) supplemented with 2 mMol/L L-glutamine (Invitrogen, Paisley, UK), 10 ng/mL hydrocortisone (Sigma-Aldrich, Taufkirchen, Germany), 10 μg/mL insulin (Sigma-Aldrich), and 1% antibiotic/antimycotic mixture (Gibco, Karlsruhe, Germany). Hair follicles were placed in a 24-well plate with 500 μL medium (day 0) and incubated in a CO2-incubator (5% CO2, 37° C.) over night without any treatment. The next day (day 1) medium was exchanged and test substance was added to each well (5 μL of stock solution was added to 495 μL culture medium). The medium or medium with test substance was changed every 48 hours.
Assay #3 Culture HF 446: Eight hair follicle cultures (3 follicles/well) were treated with various concentration of test substance as described for 2 days, followed by snap freezing and sectioning of two wells. Six wells were treated up to 9 days, then snap frozen and sectioned. The distribution of test substances and concentrations were as indicted in FIG. 3. The parameter measured after two days was proliferation/apoptosis, and the parameters measured after 9 days were elongation, proportion of cells in proliferation/apoptosis, and hair cycle stage
Hair shaft length measurements were performed every second day on individual hair follicles using a binocular microscope with an eyepiece measuring reticule. The length of the follicle was defined as the distance between the base of the bulb and the cut end of the hair fibre (Philpott MP et al, Human hair growth in vitro; J Cell Science 1990, 97(Pt 3):463-71).
(§1) All data were analysed by two-tailed unpaired t-test (SPSS analysis software SPSS Inc., Chicago, USA). For determination of elongation, two outliers at top and bottom end of value range were eliminated; with the measurement of melanogenesis one outlier at both, top and bottom range, was eliminated. Results are given as mean value and standard error of measurement (SEM).

[2] = test system: human anagen VI hair follicles; experiment: Melanogenesis, Fontana Masson staining measured by Image J, assay #1; assay type: cell-based; conditions: for Mean relative darkening of the groups (measured by image J), Mean: 9 days, dark=small index number, light=high index number
Procedure: Assay #1 Culture HF429: Hair follicles were grown in the wells of a microtiter plate (3 follicles per well) and treated for 9 days with culture medium and test substance as indicated in FIG. 1. Thereafter, elongation, melanogenesis and hair cycle stage were determined.
Fontana Masson staining was performed at the end of the culture period and photos taken of snap frozen sections. The photos were analysed (Image J, public domain, developed at the National Institutes of Health, USA) by measuring the density of two squares, consisting of 150×150 dots, placed over the darkest areas on both sides of the dermal papilla. For Fontana-Masson staining, fixed sections were treated in darkness for 40 minutes with a solution containing 10% silver nitrate (Merck & Co., Inc., Whitehouse Station, N.J., USA; CatNo 1.01512.0100), following by a development in solution containing 5% sodium thiosulphate (Merck & Co., Inc.; CatNo 1.06512.2500) for 1 minute and multiple washings in distilled water for 3 minutes. Counterstaining with 0.5% Neutralrot (Chroma Muenster, Germany, CatNo 2E038). Then dehydration in xylol and covering with Eukitt (O. Kindler GmbH, Freiburg, Germany; CatNo E115).
as §1
Micro-dissected anagen VI hair follicles were treated as above described. At the end of the culture period Fontana Masson staining was performed and photos were taken of the snap frozen sections. The pictures were analysed by measuring the darkness (brightness) of two squares, consisting of 150×150 dots, placed over the darkest areas on both sides of the dermal papilla (dark=small index number, light=high index number). The shading of the different groups was compared to each other and the results were analysed using Student's t-test. The results are shown below in Table 5 and FIG. 7.

TSH = experiment: Immunohistochemical staining of treated hair follicles for TSH (assay #6); assay type: cell-based, human; conditions: few slides only
Procedure: Assay #6—Stimulation of expression of pituitary hormones by Thymulin (PRL+TSH): Hair follicles from the occipital area of a person were cultured for 9 days and treated with culture medium and thymulin 10 pg/mL (human thymulin, No A9530AG.1; Immundiagnostik AG, Bensheim, Germany) as described above, then snap frozen and sectioned. The staining was performed according to the following protocol:
B. TSH: Pre-incubation with 10% goat serum (Dako Cytomation, CatNo 50114121) in TBS for 20 minutes, then incubation with primary antibody (mouse anti-human TSH, Dianova, Hamburg, Germany, CatNo DLN 07830), dilution 1:20 in TBS+2% goat serum (Dako Cytomation, CatNo 50114121) overnight at 4° C. Thereafter washing in TBS. Incubation with secondary antibody (goat anti-mouse-biotinylated, Beckman Coulter, Inc. Fullerton, Calif., USA, CatNo IM0816) diluted to 1:200 with 2% goat serum in TBS for 45 minutes at room temperature. Treatment with avidin/biotin-complex coupled with alkaline phosphatase (Vector Laboratories, Burlingame, Calif., USA; CatNo AK-5000) for 30 minutes, then washes in TBS. Thereafter treatment with Fast Red Tablets (Sigma-Aldrich, CatNo F4648-50SET) for 6 minutes. Counterstaining with Mayer's Haemalaun (Chroma Muenster, CatNo 2E038) and mounting with Aquamount (DAKO Cytomation, CatNo S3025). […]

Substance: Thymosin beta-4 [TB4]
- Mean elongation in % compared to day 0 ([1]; 100 ng/mL, Day 0): 0%
- Mean elongation in % compared to day 0 ([1]; 100 ng/mL, Day 1): 5.91%
- Mean elongation in % compared to day 0 ([1]; 100 ng/mL, Day 3): 42.55%
- Mean elongation in % compared to day 0 ([1]; 100 ng/mL, Day 5): 59.58%
- Mean elongation in % compared to day 0 ([1]; 100 ng/mL, Day 7): 73.62%
- Mean elongation in % compared to day 0 ([1]; 100 ng/mL, Day 9): 83.13%
- Mean elongation in % compared to day 0 ([1]; 1000 ng/mL, Day 0): 0%
- Mean elongation in % compared to day 0 ([1]; 1000 ng/mL, Day 1): 8.28%
- Mean elongation in % compared to day 0 ([1]; 1000 ng/mL, Day 3): 39.17%
- Mean elongation in % compared to day 0 ([1]; 1000 ng/mL, Day 5): 53.52%
- Mean elongation in % compared to day 0 ([1]; 1000 ng/mL, Day 7): 65.51%
- Mean elongation in % compared to day 0 ([1]; 1000 ng/mL, Day 9): 70.08%
- Rate of hair growth compared with control (in words) ([1]; 1000 ng/mL, p<0.05): significantly lowered rate of hair growth
- Mean relative darkening of the groups (measured by image J), Mean ([2]; 100 ng/mL): 101.04
- Mean relative darkening of the groups (measured by image J), Mean ([2]; 1000 ng/mL): 85.52
- Influence on HF melanogenesis (in words) ([2]; quantitative Masson-Fontana histochemistry): did not influence HF melanogenesis

Substance: thymulin
- Mean elongation in % compared to day 0 ([1]; 10 pg/mL, Day 0): 0%
- Mean elongation in % compared to day 0 ([1]; 10 pg/mL, Day 1): 7.30%
- Mean elongation in % compared to day 0 ([1]; 10 pg/mL, Day 3): 45.35%
- Mean elongation in % compared to day 0 ([1]; 10 pg/mL, Day 5): 58.41%
- Mean elongation in % compared to day 0 ([1]; 10 pg/mL, Day 7): 67.70%
- Mean elongation in % compared to day 0 ([1]; 10 pg/mL, Day 9): 78.70%
- Mean elongation in % compared to day 0 ([1]; 100 pg/mL, Day 0): 0%
- Mean elongation in % compared to day 0 ([1]; 100 pg/mL, Day 1): 5.86%
- Mean elongation in % compared to day 0 ([1]; 100 pg/mL, Day 3): 40.11%
- Mean elongation in % compared to day 0 ([1]; 100 pg/mL, Day 5): 62.88%
- Mean elongation in % compared to day 0 ([1]; 100 pg/mL, Day 7): 80.67%
- Mean elongation in % compared to day 0 ([1]; 100 pg/mL, Day 9): 94.36%
- Fontana Masson staining (melanin) compared with control group (in words) ([2]; 10 pg/mL): significantly more staining
- Mean relative darkening of the groups (measured by image J), Mean ([2]; 10 pg/mL): 75.73
- Mean relative darkening of the groups (measured by image J), Mean ([2]; 100 pg/mL): 90.48
- Immunoreactivity for TSH, treated versus control hair follicles (in words) (TSH): Did not Show any Differences
